Experimental data from ChEMBL document CHEMBL5149973, “Agaricus bisporus-Derived Glucosamine Hydrochloride Facilitates Skeletal Injury Repair through Bmp Signaling in Zebrafish Osteoporosis Model” (J Nat Prod, 2021).
Active and inactive are the calls of the source. The rule behind the calls is not given here.

What was measured:
Danio rerio [1] = species: Danio rerio; experiment: Suppression of Bmp signaling in Zebrafish tBr injected mRNA embryos assessed as reduction in slight loss of tail tissue at 2.5 uM measured at 26 hrs post fertilization; format: functional, Embryo; design: scale not given: the % may be the effect or the level left
Danio rerio [2] = species: Danio rerio; experiment: Suppression of Bmp signaling in Zebrafish tBr injected mRNA embryos assessed as reduction in indistinctive tail tissue at 2.5 uM measured at 26 hrs post fertilization; format: functional, Embryo; design: scale not given: the % may be the effect or the level left
Osteoblast [3] = experiment: Induction of osteoblast differentiation in transgenic osx mCherry Zebrafish embryo assessed as increase in Sox9a mRNA expression in fin at 0.1 % measured after 15 days by semiquantitative PCR analysis; format: functional, tissue-based; conditions: Danio rerio, time 15.0 day
Osteoblast [4] = experiment: Induction of osteoblast differentiation in transgenic osx mCherry Zebrafish embryo assessed as increase in Col10a1a mRNA expression in fin at 0.1 % measured after 15 days by semiquantitative PCR analysis; format: functional; conditions: Danio rerio, time 15.0 day
Osteoblast [5] = experiment: Induction of osteoblast differentiation in transgenic osx mCherry Zebrafish embryo assessed as increase in Sox9b mRNA expression in fin at 0.1 % measured after 15 days by semiquantitative PCR analysis; format: functional, tissue-based; conditions: Danio rerio, time 15.0 day
Danio rerio [6] = species: Danio rerio; experiment: Anti-osteoporosis activity in FAC-induced skeletal injury Zebrafish assessed as increase in cumulative bone optical density in caudal fins at 0.1 % measured for 10 day post fertilization; format: functional, organism-based
Danio rerio [7] = species: Danio rerio; experiment: Anti-osteoporosis activity in FAC-induced skeletal injury Zebrafish assessed as increase in cumulative bone optical density in spine at 0.1 % measured for 10 day post fertilization; format: functional, organism-based
Osteoblast [8] = experiment: Induction of osteoblast differentiation in transgenic osx mCherry Zebrafish embryo assessed as increase in Col1a2 mRNA expression in fin at 0.1 % measured after 15 days by semiquantitative PCR analysis; format: functional, tissue-based; conditions: Danio rerio, time 15.0 day

Structure (SMILES)	Activity (Danio rerio [1])	Activity (Danio rerio [2])	Activity (Osteoblast [3])	Activity (Osteoblast [4])	Activity (Osteoblast [5])	Activity (Danio rerio [6])	Activity (Danio rerio [7])	Activity (Osteoblast [8])
c1cc(-c2cnn3cc(-c4ccc(OCCN5CCCCC5)cc4)cnc23)ccn1 [DORSOMORPHIN]	80%	80%	–	–	–	–	–	–
NCCCC(O)(P(=O)(O)O)P(=O)(O)O	–	–	Active	Active	Active	Active	Active	Active
